From patent US9422285B2, “Substituted pyrazolo[1,5-A]-pyridine-3-carboxamides and use thereof” (Bayer Pharma Aktiengesellschaft, priority 2014, dated 2016)
Where a name gives a salt, the structure may show the parent alone.

Biological target: T1, recombinant guanylate cyclase reporter cell line (Rattus norvegicus, UniProt P19686+P20595)
T1 construct: expressed in transfected cells
T1 sequence (P19686 1-690): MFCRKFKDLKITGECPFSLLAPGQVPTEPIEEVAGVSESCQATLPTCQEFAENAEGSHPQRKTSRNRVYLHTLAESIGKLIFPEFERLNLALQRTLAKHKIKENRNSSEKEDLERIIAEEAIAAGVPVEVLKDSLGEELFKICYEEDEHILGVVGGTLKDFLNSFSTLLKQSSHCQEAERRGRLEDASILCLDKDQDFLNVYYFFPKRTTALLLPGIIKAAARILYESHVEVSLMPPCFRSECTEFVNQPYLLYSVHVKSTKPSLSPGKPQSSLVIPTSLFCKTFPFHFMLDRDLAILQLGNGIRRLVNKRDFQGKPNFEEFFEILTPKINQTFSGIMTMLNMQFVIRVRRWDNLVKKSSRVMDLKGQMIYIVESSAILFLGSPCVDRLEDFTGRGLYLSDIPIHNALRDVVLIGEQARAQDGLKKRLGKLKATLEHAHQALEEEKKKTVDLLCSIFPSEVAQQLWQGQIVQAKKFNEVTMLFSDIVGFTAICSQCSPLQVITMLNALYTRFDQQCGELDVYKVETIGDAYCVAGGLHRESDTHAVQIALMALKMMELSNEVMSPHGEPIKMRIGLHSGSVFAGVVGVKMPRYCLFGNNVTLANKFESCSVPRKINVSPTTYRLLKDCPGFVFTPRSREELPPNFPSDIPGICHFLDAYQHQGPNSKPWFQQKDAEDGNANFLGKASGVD
T1 sequence (P20595 1-619): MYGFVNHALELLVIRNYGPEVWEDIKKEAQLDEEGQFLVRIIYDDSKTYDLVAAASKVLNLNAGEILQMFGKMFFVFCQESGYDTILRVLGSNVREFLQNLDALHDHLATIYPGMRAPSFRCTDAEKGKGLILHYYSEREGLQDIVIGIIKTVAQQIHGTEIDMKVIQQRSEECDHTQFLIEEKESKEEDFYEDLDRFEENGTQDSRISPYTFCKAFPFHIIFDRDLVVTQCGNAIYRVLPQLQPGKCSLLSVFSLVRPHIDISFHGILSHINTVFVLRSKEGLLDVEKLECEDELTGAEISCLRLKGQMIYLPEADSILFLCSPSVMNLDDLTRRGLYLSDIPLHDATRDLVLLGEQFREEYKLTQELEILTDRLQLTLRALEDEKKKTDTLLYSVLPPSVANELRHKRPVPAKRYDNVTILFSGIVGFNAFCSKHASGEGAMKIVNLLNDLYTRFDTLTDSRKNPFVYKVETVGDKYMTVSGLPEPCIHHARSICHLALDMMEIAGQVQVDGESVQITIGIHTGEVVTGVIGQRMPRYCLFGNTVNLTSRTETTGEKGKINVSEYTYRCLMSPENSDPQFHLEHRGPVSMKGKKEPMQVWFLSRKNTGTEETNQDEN
Assay: Effect on a recombinant guanylate cyclase reporter cell line (B-2)
Format: cell-based
Details: in some cases mean values for individual determinations
Description: B-2. Effect on a Recombinant Guanylate Cyclase Reporter Cell Line
The cellular effect of the inventive compounds is determined using a recombinant guanylate cyclase reporter cell line, as described in F. Wunder et al., Anal. Biochem. 339, 104-112 (2005).
Representative MEC values (MEC=minimum effective concentration) for the inventive compounds are shown in the table below (in some cases as mean values for individual determinations): […]

SMILES	MEC (minimum effective concentration)
Cc1cc(OCc2c(F)cccc2F)n2nc(C)c(C(=O)NCC(N)CC(F)(F)F)c2c1 (racemic) [Example 107, rac-N-(2-Amino-4,4,4-trifluorobutyl)-7-[(2,6-difluorobenzyl)oxy]-2,5-dimethylpyrazolo[1,5-a]pyridine-3-carboxamide]	3.0 µM
Cc1cc(OCc2c(F)cccc2F)n2nc(C)c(C(=O)NC3Cc4ccccc4C3N)c2c1 (stereo not shown) [Example 70, N-(1-Amino-2,3-dihydro-1H-inden-2-yl)-7-[(2,6-difluorobenzyl)oxy]-2,5-dimethylpyrazolo[1,5-a]pyridine-3-carboxamide]	3.0 µM
Cc1cc(OCc2c(F)cccc2F)n2nc(C)c(C(=O)NCC(C)(N)CCOCc3ccccc3)c2c1 (racemic) [Example 78, rac-N-[2-Amino-4-(benzyloxy)-2-methylbutyl]-7-[(2,6-difluorobenzyl)oxy]-2,5-dimethylpyrazolo[1,5-a]pyridine-3-carboxamide]	1.0 µM
Cc1cc(OCc2c(F)cccc2F)n2nc(C)c(C(=O)NC3CCC3(C)N)c2c1 (racemic) [Example 91, rac-N-(2-Amino-2-methylcyclobutyl)-7-[(2,6-difluorobenzyl)oxy]-2,5-dimethylpyrazolo[1,5-a]pyridine-3-carboxamide]	3.0 µM
Cc1cc(OCc2c(F)cccc2F)n2nc(C)c(C(=O)NC3CCCc4c(N)cccc43)c2c1 (racemic) [Example 139, rac-N-(5-Amino-1,2,3,4-tetrahydronaphthalen-1-y1)-74(2,6-difluorobenzyl)oxy]-2,5-dimethylpyrazolo[1,5-a]pyridine-3-carboxamide]	1.0 µM
Cc1cc(OCc2c(F)cccc2F)n2nc(C)c(C(=O)NC3CCOc4ncccc43)c2c1 (racemic) [Example 74, rac-7-[(2,6-Difluorobenzyl)oxy]-N-(3,4-dihydro-2H-pyrano[2,3-b]pyridin-4-yl)-2,5-dimethylpyrazolo[1,5-a]pyridine-3-carboxamide trifluoroacetate]	0.03 µM
Cc1cc(OCc2c(F)cccc2F)n2nc(C)c(C(=O)NCC(C)(N)CCC(F)(F)F)c2c1 (single isomer, unassigned) [Example 42, ent-N-(2-Amino-5,5,5-trifluoro-2-methylpentyl)-7-[(2,6-difluorobenzyl)oxy]-2,5-dimethylpyrazolo[1,5-a]pyridine-3-carboxamide]	0.3 µM
Cc1cc(OCc2c(F)cccc2F)n2nc(C)c(C(=O)NCC(C)(N)C(F)(F)F)c2c1 (racemic) [Example 109, rac-N-(2-Amino-3,3,3-trifluoro-2-methylpropyl)-7-[(2,6-difluorobenzyl)oxy]-2,5-dimethylpyrazolo[1,5-a]pyridine-3-carboxamide]	1.0 µM
Cc1cc(OCc2c(F)cccc2F)n2nc(C)c(C(=O)NC3CCOc4c(C#N)cccc43)c2c1 (racemic) [Example 140, rac-N-(8-Cyano-3,4-dihydro-2H-chromen-4-yl)-7-[(2,6-difluorobenzyl)oxy]-2,5-dimethylpyrazolo[1,5-a]pyridine-3-carboxamide]	0.3 µM
Cc1cc(OCc2c(F)cccc2F)n2nc(C)c(C(=O)NCC(F)(F)CN)c2c1 [Example 81, N-(3-Amino-2,2-difluoropropyl)-7-[(2,6-difluorobenzyl)oxy]-2,5-dimethylpyrazolo[1,5-a]pyridine-3-carboxamide]	1.0 µM
Cc1cc(OCc2c(F)cccc2F)n2nc(C)c(C(=O)NCC3(N)COC3)c2c1 [Example 60, N-[(3-Aminooxetan-3-yl)methyl]-7-[(2,6-difluorobenzyl)oxy]-2,5-dimethylpyrazolo[1,5-a]pyridine-3-carboxamide]	3.0 µM
Cc1cc(OCc2c(F)cccc2F)n2nc(C)c(C(=O)NC[C@H]3CC[C@H](C(=O)O)CC3)c2c1 [Example 36, trans-4-{[({7-[(2,6-Difluorobenzyl)oxy]-2,5-dimethylpyrazolo[1,5-a]pyridin-3-yl}carbonyl)amino]methyl}cyclohexanecarboxylic Acid]	3.0 µM
Cc1cc(OCc2c(F)ccc(F)c2F)n2nc(C)c(C(=O)Nc3c(C)nn(Cc4ccc(F)cc4)c3C)c2c1 [Example 16, N-[1-(4-Fluorobenzyl)-3,5-dimethyl-1H-pyrazol-4-yl]-2,5-dimethyl-7-[(2,3,6-trifluorobenzyl)oxy]pyrazolo[1,5-a]pyridine-3-carboxamide]	0.3 µM
Cc1cc(OCc2c(F)ccc(F)c2F)n2nc(C)c(C(=O)NCCN(CC(F)F)C3CC3)c2c1 [Example 26, N-{2-[Cyclopropyl(2,2-difluoroethyl)amino]ethyl]-2,5-dimethyl-7-[(2,3,6-trifluorobenzyl)oxy]pyrazolo[1,5-a]pyridine-3-carboxamide]	0.3 µM
Cc1cc(OCc2c(F)cccc2F)n2nc(C)c(C(=O)NCC(=O)NC3CC3)c2c1 [Example 89, N-[2-(Cyclopropylamino)-2-oxoethyl]-7-[(2,6-difluorobenzyl)oxy]-2,5-dimethylpyrazolo[1,5-a]pyridine-3-carboxamide]	3.0 µM
Cc1cc(OCc2c(F)cccc2F)n2nc(C)c(C(=O)NCC3(N)CCCCC3)c2c1 [Example 124, N-[(1-Aminocyclohexyl)methyl]-7-[(2,6-difluorobenzyl)oxy]-2,5-dimethylpyrazolo[1,5-a]pyridine-3-carboxamide]	0.3 µM
Cc1cc(OCc2c(F)cccc2F)n2nc(C)c(C(=O)NNC3CCCC3O)c2c1 (stereo not shown) [Example 68, 7-[(2,6-Difluorobenzyl)oxy]-N′-(2-hydroxycyclopentyl)-2,5-dimethylpyrazolo[1,5-a]pyridine-3-carbohydrazide trifluoroacetate]	10 µM
Cc1cc(OCc2c(F)cccc2F)n2nc(C)c(C(=O)N[C@@H]3COC[C@@H]3N)c2c1 (relative stereo) [Example 69, rel-N-[(3R,4S)-4-Aminotetrahydrofuran-3-yl]-7-[(2,6-difluorobenzyl)oxy]-2,5-dimethylpyrazolo[1,5-a]pyridine-3-carboxamide]	10 µM
CCCC(C)(N)CNC(=O)c1c(C)nn2c(OCc3cccc(F)c3F)cc(C)cc12 (racemic) [Example 158, rac-N-(2-Amino-2-methylpentyl)-7-[(2,3-difluorobenzyl)oxy]-2,5-dimethylpyrazolo[1,5-a]pyridine-3-carboxamide]	1.0 µM
Cc1cc(OCc2c(F)cccc2F)n2nc(C)c(C(=O)NCC(C)(N)CF)c2c1 (single isomer, unassigned) [Example 41, ent-N-(2-Amino-3-fluoro-2-methylpropyl)-7-[(2,6-difluorobenzyl)oxy]-2,5-dimethylpyrazolo[1,5-a]pyridine-3-carboxamide]	0.3 µM
Cc1cc(OCc2c(F)cccc2F)n2nc(C)c(C(=O)NCC(N)c3ccc4c(c3)OCCO4)c2c1 (racemic) [Example 110, rac-N-[2-Amino-2-(2,3-dihydro-1,4-benzodioxin-6-yl)ethyl]-7-[(2,6-difluorobenzyl)oxy]-2,5-dimethylpyrazolo[1,5-a]pyridine-3-carboxamide]	3.0 µM
Cc1cc(OCc2c(F)ccc(F)c2F)n2nc(C)c(C(=O)NC(C#N)c3ccc(Cl)cc3)c2c1 (stereo not shown) [Example 34, N-[(4-Chlorophenyl)(cyano)methyl]-2,5-dimethyl-7-[(2,3,6-trifluorobenzyl)oxy]pyrazolo[1,5-a]pyridine-3-carboxamide]	1.0 µM
